Assay results as given in ChEMBL document CHEMBL6078696, “Nanomolar activity of coumarin-3-thiosemicarbazones targeting Trypanosoma cruzi cruzain and the T. brucei cathepsin L-like protease” (Eur J Med Chem, 2025).

Experiments:
Trypanosoma brucei [1] = experiment: Antitrypanosomal activity against Trypanosoma brucei trypomastigotes assessed as parasite growth inhibition at 50 uM incubated for 72 hrs by resazurin dye based assay relative to control; format: functional
[2] = target: Cruzipain (Trypanosoma cruzi) (UniProt P25779); experiment: Inhibition of recombinant Trypanosoma cruzi CRZ using Z-Phe-Arg-aminomethylcoumarin as substrate at 50 uM preincubated for 10 mins followed by substrate addition by fluorimetry relative to control
Trypanosoma brucei [3] = experiment: Inhibition of recombinant Trypanosoma brucei CATL using Z-Phe-Arg-aminomethylcoumarin as substrate at 50 uM preincubated for 10 mins followed by substrate addition by fluorimetry relative to control
Trypanosoma cruzi [4] = experiment: Antitrypanosomal activity against intracellular Trypanosoma cruzi amastigotes infected in mouse C2C12 cells at 10 uM incubated for 48 hrs by DAPI staining based analysis relative to control; format: functional
[5] = Cytotoxicity against mouse C2C12 cells at 10 uM relative to control; format: toxicity, cell-based; settings: read-out: INH
[6] = Cytotoxicity against HEK293 cells at 50 uM incubated for 48 hrs by resazurin reduction assay relative to control; format: toxicity, cell-based; settings: human, read-out: INH
Cruzipain [7] = target: T1, Cruzipain (Trypanosoma cruzi, UniProt P25779); experiment: Inhibition of Trypanosoma cruzi CRZ
[8] = Inhibition of Trypanosoma brucei CATL
Trypanosoma cruzi [9] = experiment: Antitrypanosomal activity against Trypanosoma cruzi amastigotes infected in cell model; format: functional, organism-based
Cruzipain [10] = target: T1, Cruzipain; experiment: Inhibition of recombinant Trypanosoma cruzi CRZ using Z-Phe-Arg-aminomethylcoumarin as substrate preincubated for 10 mins followed by substrate addition by fluorimetry
[11] = Inhibition of recombinant Trypanosoma brucei CATL using Z-Phe-Arg-aminomethylcoumarin as substrate preincubated for 10 mins followed by substrate addition by fluorimetry
[12] = target: Cruzipain (Trypanosoma cruzi) (UniProt P25779); experiment: Potency index, ratio of FN-27 IC50 to test compound IC50 recombinant Trypanosoma cruzi CRZ
Trypanosoma brucei [13] = experiment: Potency index, ratio of FN-27 IC50 to test compound IC50 recombinant Trypanosoma brucei CATL
[14] = Cytotoxicity against HEK293 cells incubated for 48 hrs by resazurin reduction assay; format: toxicity, cell-based; settings: human
Trypanosoma brucei [15] = experiment: Antitrypanosomal activity against Trypanosoma brucei trypomastigotes assessed as parasite growth inhibition incubated for 72 hrs by resazurin dye based assay; format: functional, organism-based
[16] = Selectivity index, ratio of CC50 for cytotoxicity against HEK293 cells to EC50 for Trypanosoma brucei trypomastigotes; format: toxicity, cell-based; settings: human, read-out: Ratio CC50/EC50

T1 sequence (P25779 whole entry): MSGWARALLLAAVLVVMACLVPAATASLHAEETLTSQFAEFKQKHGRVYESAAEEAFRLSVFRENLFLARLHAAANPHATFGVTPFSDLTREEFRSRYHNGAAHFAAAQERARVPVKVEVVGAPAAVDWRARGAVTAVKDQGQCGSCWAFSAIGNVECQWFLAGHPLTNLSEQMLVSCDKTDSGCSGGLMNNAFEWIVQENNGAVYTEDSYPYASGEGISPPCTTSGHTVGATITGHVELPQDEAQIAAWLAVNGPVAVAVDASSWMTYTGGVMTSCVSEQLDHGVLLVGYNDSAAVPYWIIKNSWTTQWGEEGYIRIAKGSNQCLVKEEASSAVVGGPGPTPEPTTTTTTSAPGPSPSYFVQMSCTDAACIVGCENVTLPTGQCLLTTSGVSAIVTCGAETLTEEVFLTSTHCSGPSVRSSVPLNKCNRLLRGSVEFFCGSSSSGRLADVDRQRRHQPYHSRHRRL
Chain of Cruzipain (Trypanosoma cruzi) (P25779 123-467 limits assumed): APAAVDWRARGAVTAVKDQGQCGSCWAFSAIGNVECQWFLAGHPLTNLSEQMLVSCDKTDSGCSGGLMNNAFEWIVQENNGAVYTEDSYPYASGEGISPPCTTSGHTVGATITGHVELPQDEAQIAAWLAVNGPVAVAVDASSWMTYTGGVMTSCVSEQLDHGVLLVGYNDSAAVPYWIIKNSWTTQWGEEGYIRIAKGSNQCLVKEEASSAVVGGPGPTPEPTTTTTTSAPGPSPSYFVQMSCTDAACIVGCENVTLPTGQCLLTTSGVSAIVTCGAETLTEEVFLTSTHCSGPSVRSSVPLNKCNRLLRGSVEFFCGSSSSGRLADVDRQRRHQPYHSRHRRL

Structure (SMILES)	inhibition [2] [%]	inhibition (Trypanosoma brucei [3]) [%]	inhibition at 50 µM (Trypanosoma brucei [1]) [%]	inhibition at 10 µM (Trypanosoma cruzi [4]) [%]	cytotoxicity at 10 µM [5] [%]	cytotoxicity at 48 h, 50 µM [6] [%]	further results
COc1cccc2cc(/C(C)=N/NC(N)=S)c(=O)oc12	–	–	–	–	–	–	IC50 (Cruzipain [7]): 14.4 µM; IC50 [8]: 2 µM; EC50 (Trypanosoma cruzi [9]): 5.5 µM
O=C(c1cc2cc(I)ccc2oc1=O)N1CCN(c2ccccc2)CC1	2	19	12	5	0	13	–
O=C(Nc1ccccc1)c1cc2ccccc2oc1=O	9	17	52	3	1	0	–
C/C(=N\NC(N)=S)c1cc2ccc(C)cc2oc1=O	98	97	23	52	0	10	IC50 (Cruzipain [10]): 0.2 µM; IC50 [11]: 0.022 µM; Ratio IC50 [12]: 72; Ratio IC50 (Trypanosoma brucei [13]): 92; CC50 at 48 h [14]: 114 µM
COc1ccc2cc(C(=O)NCCc3c[nH]c4ccccc34)c(=O)oc2c1	–	–	59	27	0	81	CC50 at 48 h [14]: 32.1 µM
O=C(NCc1ccccc1)c1cc2ccccc2oc1=O	1	7	38	6	10	3	–
COc1ccc2cc(C(=O)N3CCN(c4ccccc4)CC3)c(=O)oc2c1	5	29	43	27	1	11	–
COc1cc(OC)c2cc(C(=O)NCCc3c[nH]c4ccccc34)c(=O)oc2c1	25	15	43	13	0	31	–
O=C(NCCc1c[nH]c2ccccc12)c1cc2cc(I)ccc2oc1=O	7	18	39	7	1	41	–
CC(C)C[C@H](NC(=O)[C@H](Cc1ccccc1)NC(=O)c1cnccn1)B(O)O [BORTEZOMIB]	–	–	–	–	–	100	–
O=C(Cn1ccnc1[N+](=O)[O-])NCc1ccccc1 [BENZNIDAZOLE]	–	–	–	77	0	–	–
COc1ccc2cc(C(=O)NCc3ccccc3)c(=O)oc2c1	–	–	45	21	0	1	–
N=C(N)c1ccc(OCCCCCOc2ccc(C(=N)N)cc2)cc1 [PENTAMIDINE]	–	–	100	–	–	–	–
COc1cc(OC)c2cc(C(=O)NCc3ccccc3)c(=O)oc2c1	–	–	3	17	0	23	–
CC(C)C[C@H](NC(=O)[C@H]1O[C@@H]1C(=O)O)C(=O)NCCCCN=C(N)N	–	99	–	–	–	–	–
COc1cc(OC)c2cc(C(=O)N3CCN(c4ccccc4)CC3)c(=O)oc2c1	3	24	15	2	0	18	–

Continued, in another order:

inhibition [2] [%]	inhibition (Trypanosoma brucei [3]) [%]	Structure (SMILES)	inhibition at 50 µM (Trypanosoma brucei [1]) [%]	inhibition at 10 µM (Trypanosoma cruzi [4]) [%]	cytotoxicity at 10 µM [5] [%]	cytotoxicity at 48 h, 50 µM [6] [%]	further results
48	34	O=C(c1cc2ccccc2oc1=O)N1CCN(c2ccccc2)CC1	17	8	0	11	–
22	9	O=C(NCCc1c[nH]c2ccccc12)c1cc2cc(Cl)cc(Cl)c2oc1=O	44	23	0	17	–
6	12	O=C(c1cc2cc(Cl)cc(Cl)c2oc1=O)N1CCN(c2ccccc2)CC1	24	25	5	12	–
30	77	CCN(CC)c1ccc2cc(/C(C)=N/NC(N)=S)c(=O)oc2c1	56	44	11	80	IC50 (Cruzipain [10]): 0.046 µM; CC50 at 48 h [14]: 42.7 µM
10	25	O=C(NCCc1c[nH]c2ccccc12)c1cc2ccccc2oc1=O	63	24	16	76	CC50 at 48 h [14]: 19.6 µM
97	88	C/C(=N\NC(N)=S)c1cc2ccccc2oc1=O	40	49	0	11	IC50 (Cruzipain [10]): 0.068 µM; IC50 [11]: 0.073 µM
92	87	C/C(=N\NC(N)=S)c1cc2cc(Br)ccc2oc1=O	71	57	12	13	IC50 (Cruzipain [10]): 0.145 µM; IC50 [11]: 0.698 µM; EC50 (Trypanosoma brucei [15]): 43.6 µM; CC50 at 48 h [14]: 52.3 µM; selectivity ratio [16]: ~1.2
